According to article PMC10945555, “Improving Activity of New Arylurea Agents against Multidrug-Resistant and Biofilm-Producing Staphylococcus epidermidis” (ACS Medicinal Chemistry Letters, 2024):
Values after ≈ are worked out from the molar mass of the structure shown. Where two headings read alike, the source gives them in different places.

Legend:
[1] = tested on: Staphylococcus aureus ATCC BAA-976; test: MIC, broth microdilution, MDR/BPSA reference strain; assay type: cell-based; details: ATCCBAA976; Staphylococcus aureus ATCC BAA-976; read-out: MIC MDR/BPSA
Procedure, shortened: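 Compounds tested as free bases dissolved in DMSO (1 mg/mL stock); determinations done twice; linezolid as positive control.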

[2] = tested on: clinical MDR Staphylococcus epidermidis isolates; test: MIC, broth microdilution, 81 clinical MDR strains; assay type: cell-based; details: Staphylococcus epidermidis
Method: 2 Biological assay protocols
Microbiological tests were carried out under aseptic conditions in a laminar chamber of the 2nd […]
(BioTectum 1.2, Alchem Poland). The assessment of antimicrobial activity was carried out for final compounds in the form of free bases, soluble in DMSO (Merck, Germany), at the initial […]
concentration of 1 mg/mL. […]
were provided by Cayman Chemical, USA. […]
The antibacterial activity of selected compounds was also tested on a panel of 81 unrelated, multidrug -resistant clinical strains of Staphylococcus epidermidis from the own collection of the Department of Pharmaceutical Microbiology of the Jagiellonian University Medical College.
2.2 Effect of evaluated compounds on planktonic cells
The susceptibility of three reference bacterial strains (Staphylococcus epidermidis ATCC […]
Table S1) and 81 clinical MDR S. epidermidis (Table S2) to the tested compounds was assessed by determining the MIC value (Minimal Inhibitory Concentration) by microdilution in a liquid medium in 96-well flat-bottom cell culture plates (Nest Biotechnology Scientific, USA). The antibacterial properties of the compo unds were tested in the concentration range from 50 µg/mL to 0.1 µg/mL by making a series of double dilutions of the compound in liquid Mueller -Hinton II Broth Cation Adjusted (MHB II, BBL TM, USA) according to the European Committee on […]
Antimicrobial Susceptibility Testing guidelines (EUCAST).2,3 The determinations were performed twice. The MIC50 and MIC90 values were determined for each of the tested

[3] = tested on: horse red blood cells; test: Hemolytic activity assay
Method: 2.3.3 Hemolytic activity assay
The hemolytic properties of tested compound were evaluated according to previously reported procedure.6 Defibrinated horse red blood cells purchased from Thermo Fisher Scientific (Germany) were washed with PBS (3000 rpm, 10 min at 4 °C) for three times followed by PBS dilution to obtain a 8% suspension. Then, 100 μL of the resulting suspensions […]
were treated with 100 μL of tested compound at the final concentration of 200 μM, and incubated at 37 °C for 1 h. Triton X-100 (2%) and PBS were used as positive and negative controls, respectively. After centrifugation at 3000 rpm for 3 min, 100 μL of the supernatants were transferred to a 96 well microtiter plate and the hemoglobin release was determined in a SpectraMax iD3 reader (Molecular Devices) by absorption at 540 nm. […]

## O=S(=O)(NC1CCN(CCC(Oc2ccc(C(F)(F)F)cc2)c2ccccc2)CC1)c1cccc(Cl)c1 (stereo not drawn) [Compound 12]
[1]
  MIC: 50 µg/mL (≈ 90.4 µM)
[2]; clinical strain 1 (Table S2), read-out: MIC
  MIC: 0.2 µg/mL (≈ 0.362 µM)
[2]; clinical strain 2 (Table S2), read-out: MIC
  MIC: 1.6 µg/mL (≈ 2.89 µM)
[2]; clinical strain 3 (Table S2), read-out: MIC
  MIC: 0.8 µg/mL (≈ 1.45 µM)
[2]; clinical strain 4 (Table S2), read-out: MIC
  MIC: 0.8 µg/mL (≈ 1.45 µM)
[2]; clinical strain 5 (Table S2), read-out: MIC
  MIC: 1.6 µg/mL (≈ 2.89 µM)
[2]; clinical strain 6 (Table S2), read-out: MIC
  MIC: 3.12 µg/mL (≈ 5.65 µM)
[2]; clinical strain 7 (Table S2), read-out: MIC
  MIC: 6.25 µg/mL (≈ 11.3 µM)
[2]; clinical strain 8 (Table S2), read-out: MIC
  MIC: 1.6 µg/mL (≈ 2.89 µM)
[2]; clinical strain 9 (Table S2), read-out: MIC
  MIC: 3.12 µg/mL (≈ 5.65 µM)
[2]; clinical strain 10 (Table S2), read-out: MIC
  MIC: 6.25 µg/mL (≈ 11.3 µM)
[2]; clinical strain 11 (Table S2), read-out: MIC
  MIC: 6.25 µg/mL (≈ 11.3 µM)
[2]; clinical strain 12 (Table S2), read-out: MIC
  MIC: 6.25 µg/mL (≈ 11.3 µM)
[2]; clinical strain 13 (Table S2), read-out: MIC
  MIC: 6.25 µg/mL (≈ 11.3 µM)
[2]; clinical strain 14 (Table S2), read-out: MIC
  MIC: 50 µg/mL (≈ 90.4 µM)
[2]; clinical strain 15 (Table S2), read-out: MIC
  MIC: 3.12 µg/mL (≈ 5.65 µM)
[2]; clinical strain 16 (Table S2), read-out: MIC
  MIC: 3.12 µg/mL (≈ 5.65 µM)
[2]; clinical strain 17 (Table S2), read-out: MIC
  MIC: 3.12 µg/mL (≈ 5.65 µM)
[2]; clinical strain 18 (Table S2), read-out: MIC
  MIC: 3.12 µg/mL (≈ 5.65 µM)
[2]; clinical strain 19 (Table S2), read-out: MIC
  MIC: 3.12 µg/mL (≈ 5.65 µM)
[2]; clinical strain 20 (Table S2), read-out: MIC
  MIC: 6.25 µg/mL (≈ 11.3 µM)
[2]; clinical strain 21 (Table S2), read-out: MIC
  MIC: 6.25 µg/mL (≈ 11.3 µM)
[2]; clinical strain 22 (Table S2), read-out: MIC
  MIC: 12.5 µg/mL (≈ 22.6 µM)
[2]; clinical strain 23 (Table S2), read-out: MIC
  MIC: 12.5 µg/mL (≈ 22.6 µM)
[2]; clinical strain 24 (Table S2), read-out: MIC
  MIC: 12.5 µg/mL (≈ 22.6 µM)
[2]; clinical strain 25 (Table S2), read-out: MIC
  MIC: 12.5 µg/mL (≈ 22.6 µM)
[2]; clinical strain 26 (Table S2), read-out: MIC
  MIC: 12.5 µg/mL (≈ 22.6 µM)
[2]; clinical strain 27 (Table S2), read-out: MIC
  MIC: 25 µg/mL (≈ 45.2 µM)
[2]; clinical strain 28 (Table S2), read-out: MIC
  MIC: 12.5 µg/mL (≈ 22.6 µM)
[2]; clinical strain 29 (Table S2), read-out: MIC
  MIC: 12.5 µg/mL (≈ 22.6 µM)
[2]; clinical strain 30 (Table S2), read-out: MIC
  MIC: 25 µg/mL (≈ 45.2 µM)
[2]; clinical strain 31 (Table S2), read-out: MIC
  MIC: 50 µg/mL (≈ 90.4 µM)
[2]; clinical strain 32 (Table S2), read-out: MIC
  MIC: 50 µg/mL (≈ 90.4 µM)
[2]; clinical strain 33 (Table S2), read-out: MIC
  MIC: 25 µg/mL (≈ 45.2 µM)
[2]; clinical strain 34 (Table S2), read-out: MIC
  MIC: 50 µg/mL (≈ 90.4 µM)
[2]; clinical strain 35 (Table S2), read-out: MIC
  MIC: 50 µg/mL (≈ 90.4 µM)
[2]; clinical strain 36 (Table S2), read-out: MIC
  MIC: 50 µg/mL (≈ 90.4 µM)
[2]; clinical strain 37 (Table S2), read-out: MIC
  MIC: 50 µg/mL (≈ 90.4 µM)
[2]; clinical strain 38 (Table S2), read-out: MIC
  MIC: 50 µg/mL (≈ 90.4 µM)
[2]; clinical strain 39 (Table S2), read-out: MIC
  MIC: 50 µg/mL (≈ 90.4 µM)
[2]; clinical strain 40 (Table S2), read-out: MIC
  MIC: 50 µg/mL (≈ 90.4 µM)
[2]; clinical strain 41 (Table S2), read-out: MIC
  MIC: 12.5 µg/mL (≈ 22.6 µM)
[2]; clinical strain 42 (Table S2), read-out: MIC
  MIC: 50 µg/mL (≈ 90.4 µM)
[2]; clinical strain 43 (Table S2), read-out: MIC
  MIC: 25 µg/mL (≈ 45.2 µM)
[2]; clinical strain 44 (Table S2), read-out: MIC
  MIC: 50 µg/mL (≈ 90.4 µM)
[2]; clinical strain 45 (Table S2), read-out: MIC
  MIC: 50 µg/mL (≈ 90.4 µM)
[2]; clinical strain 46 (Table S2), read-out: MIC
  MIC: 50 µg/mL (≈ 90.4 µM)
[2]; clinical strain 47 (Table S2), read-out: MIC
  MIC: 50 µg/mL (≈ 90.4 µM)
[2]; clinical strain 48 (Table S2), read-out: MIC
  MIC: 3.12 µg/mL (≈ 5.65 µM)
[2]; clinical strain 49 (Table S2), read-out: MIC
  MIC: 0.1 µg/mL (≈ 0.181 µM)
[2]; clinical strain 50 (Table S2), read-out: MIC
  MIC: 50 µg/mL (≈ 90.4 µM)
[2]; clinical strain 51 (Table S2), read-out: MIC
  MIC: 50 µg/mL (≈ 90.4 µM)
[2]; clinical strain 52 (Table S2), read-out: MIC
  MIC: 3.12 µg/mL (≈ 5.65 µM)
[2]; clinical strain 53 (Table S2), read-out: MIC
  MIC: 6.25 µg/mL (≈ 11.3 µM)
[2]; clinical strain 54 (Table S2), read-out: MIC
  MIC: 50 µg/mL (≈ 90.4 µM)
[2]; clinical strain 55 (Table S2), read-out: MIC
  MIC: 6.25 µg/mL (≈ 11.3 µM)
[2]; clinical strain 56 (Table S2), read-out: MIC
  MIC: 3.12 µg/mL (≈ 5.65 µM)
[2]; clinical strain 57 (Table S2), read-out: MIC
  MIC: 50 µg/mL (≈ 90.4 µM)
[2]; clinical strain 58 (Table S2), read-out: MIC
  MIC: 3.12 µg/mL (≈ 5.65 µM)
[2]; clinical strain 59 (Table S2), read-out: MIC
  MIC: 50 µg/mL (≈ 90.4 µM)
[2]; clinical strain 60 (Table S2), read-out: MIC
  MIC: 3.12 µg/mL (≈ 5.65 µM)
[2]; clinical strain 61 (Table S2), read-out: MIC
  MIC: 50 µg/mL (≈ 90.4 µM)
[2]; clinical strain 62 (Table S2), read-out: MIC
  MIC: 6.25 µg/mL (≈ 11.3 µM)
[2]; clinical strain 63 (Table S2), read-out: MIC
  MIC: 1.6 µg/mL (≈ 2.89 µM)
[2]; clinical strain 64 (Table S2), read-out: MIC
  MIC: 3.12 µg/mL (≈ 5.65 µM)
[2]; clinical strain 65 (Table S2), read-out: MIC
  MIC: 3.12 µg/mL (≈ 5.65 µM)
[2]; clinical strain 66 (Table S2), read-out: MIC
  MIC: 50 µg/mL (≈ 90.4 µM)
[2]; clinical strain 67 (Table S2), read-out: MIC
  MIC: 50 µg/mL (≈ 90.4 µM)
[2]; clinical strain 68 (Table S2), read-out: MIC
  MIC: 50 µg/mL (≈ 90.4 µM)
[2]; clinical strain 69 (Table S2), read-out: MIC
  MIC: 1.6 µg/mL (≈ 2.89 µM)
[2]; clinical strain 70 (Table S2), read-out: MIC
  MIC: 50 µg/mL (≈ 90.4 µM)
[2]; clinical strain 71 (Table S2), read-out: MIC
  MIC: 50 µg/mL (≈ 90.4 µM)
[2]; clinical strain 72 (Table S2), read-out: MIC
  MIC: 3.12 µg/mL (≈ 5.65 µM)
[2]; clinical strain 73 (Table S2), read-out: MIC
  MIC: 0.8 µg/mL (≈ 1.45 µM)
[2]; clinical strain 74 (Table S2), read-out: MIC
  MIC: 50 µg/mL (≈ 90.4 µM)
[2]; clinical strain 75 (Table S2), read-out: MIC
  MIC: 6.25 µg/mL (≈ 11.3 µM)
[2]; clinical strain 76 (Table S2), read-out: MIC
  MIC: 0.8 µg/mL (≈ 1.45 µM)
[2]; clinical strain 77 (Table S2), read-out: MIC
  MIC: 3.12 µg/mL (≈ 5.65 µM)
[2]; clinical strain 78 (Table S2), read-out: MIC
  MIC: 6.25 µg/mL (≈ 11.3 µM)
[2]; clinical strain 79 (Table S2), read-out: MIC
  MIC: 3.12 µg/mL (≈ 5.65 µM)
[2]; clinical strain 80 (Table S2), read-out: MIC
  MIC: 12.5 µg/mL (≈ 22.6 µM)
[2]; clinical strain 81 (Table S2), read-out: MIC
  MIC: 6.25 µg/mL (≈ 11.3 µM)
[2]; mean of MIC values against clinical MDR-SE isolates, read-out: mean MIC
  MIC: 20.4 µg/mL (≈ 36.9 µM)
[2]; 81 clinical strains, concentration inhibiting growth of 50% clinical isolates
  MIC50: 6.25 µg/mL (≈ 11.3 µM)
[2]; 81 clinical strains, concentration inhibiting growth of 90% of clinical isolates
  MIC90: 50 µg/mL (≈ 90.4 µM)
[3]; 200 μM, 1 h, n = 3
  %hem (hemolytic activity): 0.48%
[3]; concentrations up to 200 μM
  lysis of erythrocytes: None of them caused lysis of erythrocytes
